This note sets out measurements from patent publication US4895842A, “Phenylalanine derivative and proteinase inhibitor” (Shosuke Okamoto, priority 1985, dated 1990).

For test [1], the target named is T1, human plasmin (Homo sapiens, UniProt P00747). The test is described as follows: Antiplasmin activity: inhibition of fibrin decomposition. The class given is biochemical. The note with it: read-out: Plasmin Fibrin (I50). On the procedure:
(i) Determination of inhibition activity for fibrin decomposition
An inhibitor sample is dissolved in a 0.18M borate-physiological salt buffer solution (pH=7.4) to make the total volume to 600 μl. To this buffer solution, 200 μl of a 0.2% bovine fibrinogen, 100 μl of a 0.3 casein unit/ml human plasmin solution, and 100 μl of a 50 unit/ml bovine thrombin solution, all dissolved in the above-mentioned buffer, are added at a temperature of 37° C. in a constant temperature bath. Then, the dissolution time of the fibrin mass formed above is determined.

In test [2] the target is T2, bovine thrombin (Bos taurus, UniProt P00735). Nature of the test: Antithrombin activity: inhibition of S-2238 decomposition. The class given is biochemical. On the procedure:
(ii) Determination of inhibition activity for S-2238 decomposition
An inhibitor sample is dissolved in a 0.05M Tris-hydrochloric acid buffer solution (pH=8.3) to make a total volume of 400 μl. To this solution, 50 μl of a 0.2 mM S-2238 solution is added and the mixture is incubated at a temperature of 37° C. for 5 minutes in a constant temperature bath. Then, 50 μl of a 0.2 unit/ml bovine thrombin solution is added thereto and the absorbance, at 405 nm, of the p-nitroaniline formed per minute is determined at a temperature of 37° C. by using the so-called initial velocity method. Thus, the concentration I50 (μmol) of the inhibitor sample at which the absorbance is one half (i.e., 1/2) of that obtained in the absence of the inhibitor sample, is determined.

The target in the next test is human urokinase (Homo sapiens, UniProt P00749). Nature of the test: biochemical. The note with it: S-2444 substrate, read-out: Urokinase S-2444 (I50). How it is done: Determination of inhibition activity for S-2444 decomposition
An inhibitor sample is dissolved in a 0.05M Tris-hydrochloric acid buffer solution (pH=8.8) to make the total volume to 400 μl. To this solution, 50 μl of a 1 mM S-2444 solution is added and the mixture is incubated at a temperature of 37° C. for 5 minutes in a constant temperature bath. Then, 50 μl of a 500 unit/ml human urokinase is added and the mixture is incubated at a temperature of 37° C. for 5 minutes. Thereafter, 50 μl of 50% acetic acid is added to terminate the reaction. The absorbance of the p-nitroaniline formed in the reaction mixture is measured at 405 nm. Thus, the concentration I50 (μmol) of the inhibitor sample, at which the absorbance is one half (i.e., 1/2) of that obtained in the absence of the inhibitor sample, is determined.

A further test has as its target human plasma kallikrein (Homo sapiens, UniProt P03952). The test is described as follows: Anti-plasma kallikrein activity: inhibition of S-2302 decomposition. It is filed as biochemical. The note with it: S-2302 substrate, read-out: Plasma Kallikrein S-2302 (I50).
Test [3] addresses T2, bovine thrombin. Nature of the test: Antithrombin activity: inhibition of fibrin formation from fibrinogen. It is filed as biochemical. On the procedure:
(i) Determination of inhibition activity against fibrin formation
An inhibitor sample is dissolved in a 0.18M borate-physiological salt buffer solution (pH=7.4) to make the total volume to 500 μl. To this solution, 400 μl of a 0.2% bovine fibrinogen solution and 100 μl of a 4 unit/ml bovine thrombin solution are added at a temperature of 37° C. in a constant temperature bath. Thus, a coagulation time is determined. The inhibitor concentration I50 (μmol), at which the coagulation time obtained in the absence of the inhibitor is extended twice, is determined.

Test [4] concerns the target T1, human plasmin. The test is described as follows: biochemical. The note with it: read-out: Plasmin S-2251 (I50). On the procedure: An inhibitor sample is dissolved in a 0.05M Tris-hydrochloric acid buffer solution (pH=7.4) to make the total volume of 400 μl. […] Then, 50 μl of a 0.2 casein unit/ml human plasmin is added and the mixture is incubated at a temperature of 37° C. for 4 minutes. Thereafter, the reaction is stopped by adding 50 μl of 50% acetic acid.
Thus, the concentration I50 (μmol) of the inhibitor sample, at which the absorbance is one half (i.e., 1/2) of that obtained in the absence of the inhibitor, is determined.

In the next test the target is T3, bovine trypsin (Bos taurus, UniProt P00760).
T3 sequence (P00760 24-246): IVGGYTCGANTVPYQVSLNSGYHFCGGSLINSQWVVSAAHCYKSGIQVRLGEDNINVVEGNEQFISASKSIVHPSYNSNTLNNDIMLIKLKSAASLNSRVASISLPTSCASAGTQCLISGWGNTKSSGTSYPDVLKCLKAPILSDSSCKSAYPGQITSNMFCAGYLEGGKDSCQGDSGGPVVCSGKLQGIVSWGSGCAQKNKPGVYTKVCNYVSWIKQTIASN
The test is described as follows: Antitrypsin activity: inhibition of S-2238 decomposition. The note with it: S-2238 substrate, read-out: Trypsin S-2238 (I50). The class given is biochemical.

[5] abbreviates: Table 2, concentration at which fibrin dissolution time is extended twice, pH 7.4, 37° C.
Setting [6] is: Table 2, S-2238 substrate, pH 8.3, 37° C., read-out: Thrombin S-2238 (I50).
[7] abbreviates: Table 4, comparative compounds of Table 3, S-2238 substrate, pH 8.3, read-out: Thrombin S-2238 (I50).
Setting [8] is: Table 4, comparative compounds of Table 3, pH 8.8.
The mark [9] stands for this setting: Table 4, comparative compounds of Table 3, pH 7.8.
The mark [10] stands for this setting: Table 4, comparative compounds of Table 3, coagulation time extended twice, read-out: Thrombin Fibrinogen (I50).

Read-outs that look alike come from different tables or passages of the source.

T1 sequence (P00747 581-810 limits assumed): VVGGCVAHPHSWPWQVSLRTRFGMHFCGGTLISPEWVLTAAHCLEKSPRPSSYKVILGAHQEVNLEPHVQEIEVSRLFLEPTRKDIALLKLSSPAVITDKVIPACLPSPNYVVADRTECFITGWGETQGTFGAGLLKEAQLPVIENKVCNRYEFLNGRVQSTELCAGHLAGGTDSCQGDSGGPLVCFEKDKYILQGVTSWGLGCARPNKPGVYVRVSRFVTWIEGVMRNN
T1 sequence (P00747 97-580 partner limits assumed): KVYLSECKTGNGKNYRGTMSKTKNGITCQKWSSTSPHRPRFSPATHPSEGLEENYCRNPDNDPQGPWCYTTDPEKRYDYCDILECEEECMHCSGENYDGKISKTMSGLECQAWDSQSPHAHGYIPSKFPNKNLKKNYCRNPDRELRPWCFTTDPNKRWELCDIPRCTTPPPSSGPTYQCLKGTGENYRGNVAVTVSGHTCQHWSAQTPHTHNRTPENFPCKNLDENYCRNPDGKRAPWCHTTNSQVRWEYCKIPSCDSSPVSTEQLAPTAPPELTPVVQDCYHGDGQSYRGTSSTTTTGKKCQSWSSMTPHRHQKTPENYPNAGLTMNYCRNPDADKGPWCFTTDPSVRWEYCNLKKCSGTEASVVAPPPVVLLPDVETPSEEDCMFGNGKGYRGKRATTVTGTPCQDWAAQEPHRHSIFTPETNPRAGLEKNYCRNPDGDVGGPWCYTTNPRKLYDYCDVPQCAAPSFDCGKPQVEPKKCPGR
human plasma kallikrein, sequence (P03952 391-638 limits assumed): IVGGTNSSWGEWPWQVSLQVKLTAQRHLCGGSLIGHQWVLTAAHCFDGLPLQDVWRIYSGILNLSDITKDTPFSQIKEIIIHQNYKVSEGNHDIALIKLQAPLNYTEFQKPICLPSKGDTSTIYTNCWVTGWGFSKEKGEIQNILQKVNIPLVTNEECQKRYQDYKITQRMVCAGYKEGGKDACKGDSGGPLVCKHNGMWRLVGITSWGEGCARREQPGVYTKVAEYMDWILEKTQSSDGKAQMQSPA
human plasma kallikrein, sequence (P03952 20-390 partner limits assumed): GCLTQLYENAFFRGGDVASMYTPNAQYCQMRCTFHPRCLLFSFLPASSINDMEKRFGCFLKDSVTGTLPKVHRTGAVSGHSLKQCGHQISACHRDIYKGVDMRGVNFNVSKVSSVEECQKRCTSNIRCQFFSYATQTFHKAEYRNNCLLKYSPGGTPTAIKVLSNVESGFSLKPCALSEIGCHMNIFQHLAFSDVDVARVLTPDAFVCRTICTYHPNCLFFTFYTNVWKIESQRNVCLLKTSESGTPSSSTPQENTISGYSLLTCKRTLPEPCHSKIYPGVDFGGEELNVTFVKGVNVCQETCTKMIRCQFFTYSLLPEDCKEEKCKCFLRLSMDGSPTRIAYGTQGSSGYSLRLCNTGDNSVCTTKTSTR

Turning to `NC[C@H]1CC[C@H](C(=O)N[C@@H](Cc2ccccc2)C(=O)Nc2ccc(C(=O)c3ccccc3)cc2)CC1` [Compound No. 1], the IC50 at human plasmin [1] (setting [5]) is 40 µM; on bovine thrombin [2] (setting [6]), > 100 µM; on human urokinase (Table 2, pH 8.8, 37° C.), 11 µM; at human plasma kallikrein (Table 2, pH 7.8, 37° C.) it was 1.9 µM; at bovine thrombin [3], > 50 µM; at human plasmin [4] it was 27 µM. Also, the IC50 on bovine trypsin (Table 2, pH 8.1, 37° C.) worked out at 0.3 µM.
With `CC(=O)c1ccc(NC(=O)[C@H](Cc2ccccc2)NC(=O)[C@H]2CC[C@H](CN)CC2)cc1` [Compound No. 2, N-(trans-4-aminomethylcyclohexylcarbonyl)-L-phenylalanine 4-acetylanilide], the IC50 is > 1000 µM on bovine thrombin [2] (setting [6]); > 1000 µM against bovine thrombin [3]; 1.3 µM at bovine trypsin (Table 2, pH 8.1, 37° C.).
For the compound `CC(=O)c1ccc(NC(=O)[C@H](Cc2ccc(OCc3ccccc3)cc2)NC(=O)[C@H]2CC[C@H](CN)CC2)cc1` [Compound No. 3, N-(trans-4-aminomethylcyclohexylcarbonyl)-4-benzyloxy-L-phenylalanine 4-acetylanilide], the IC50 at human plasmin [1] (setting [5]) was 0.4 µM; at bovine thrombin [2] (setting [6]), > 200 µM; at human urokinase (Table 2, pH 8.8, 37° C.) it was 31 µM; at human plasma kallikrein (Table 2, pH 7.8, 37° C.) it was 0.63 µM; on bovine thrombin [3], > 100 µM; on human plasmin [4], 1.8 µM. Besides, at bovine trypsin (Table 2, pH 8.1, 37° C.), the IC50 is 0.77 µM.
In the case of `COc1ccc(C[C@H](NC(=O)[C@H]2CC[C@H](CN)CC2)C(=O)Nc2ccc(C(C)=O)cc2)cc1` [Compound No. 6, N-(trans-4-aminomethylcyclohexylcarbonyl)-4-methoxy-L-phenylalanine 4-acetylanilide], the IC50 on human plasmin [1] (setting [5]) is 4.6 µM; on bovine thrombin [2] (setting [6]), 230 µM; on human urokinase (Table 2, pH 8.8, 37° C.) it was 42 µM; at human plasma kallikrein (Table 2, pH 7.8, 37° C.) it was 2 µM; against bovine thrombin [3] it was > 500 µM; on human plasmin [4] it was 1.3 µM. Besides, the IC50 on bovine trypsin (Table 2, pH 8.1, 37° C.) was 1.1 µM.
In the case of `CC(=O)c1ccc(NC(=O)[C@H](Cc2ccc(OCc3cccc(Cl)c3)cc2)NC(=O)[C@H]2CC[C@H](CN)CC2)cc1` [Compound No. 35, N-(trans-4-aminomethylcyclohexylcarbonyl)-4-(3-chlorobenzyloxy)-L-phenylalanine 4-acetylanilide methane sulfonate], the IC50 at human plasmin [1] (setting [5]) was 0.095 µM; at bovine thrombin [2], > 100 µM; at bovine thrombin [3] it was > 50 µM; at bovine trypsin (Table 2, pH 8.1, 37° C.) it was 1 µM.
For the compound `NC[C@H]1CC[C@H](C(=O)O)CC1` [Table 3 Compound No. 1, tranexamic acid, reference compound], the IC50 on bovine thrombin [2] (setting [7]) is > 1000 µM; at human urokinase (setting [8]), > 1000 µM; on human plasma kallikrein (setting [9]) it was > 1000 µM; on bovine thrombin [3] (setting [10]), > 1000 µM; at bovine trypsin (Table 4, comparative compounds of Table 3, pH 8.1) it was > 1000 µM.
In the case of `CC(=O)NC(Cc1ccc(OCc2ccccc2)cc1)C(=O)N(C)C` (stereo not shown) [Table 3 Compound No. 5, reference compound], the IC50 on human plasmin [1] (Table 4, comparative compounds of Table 3, fibrin dissolution time extended twice) is > 200 µM; at bovine thrombin [2] (setting [7]), > 200 µM; at human urokinase (setting [8]), > 200 µM; at human plasma kallikrein (setting [9]), > 200 µM; at bovine thrombin [3] (setting [10]), > 200 µM; at human plasmin [4] (Table 4, comparative compounds of Table 3, S-2251 substrate, pH 7.4, 37° C.), > 200 µM.
Consider `CC(=O)c1ccc(NC(=O)[C@H](Cc2ccc(OC(C)C)cc2)NC(=O)[C@H]2CC[C@H](CN)CC2)cc1` [compound 14], for which the IC50 on human plasmin [1] (setting [5]) was 4.4 µM; on bovine thrombin [2] (setting [6]), > 400 µM; at human urokinase (Table 2, pH 8.8, 37° C.), 80 µM; on human plasma kallikrein (Table 2, pH 7.8, 37° C.), 2.1 µM; at bovine thrombin [3], > 500 µM; at human plasmin [4] it was 168 µM.
Take `CC(=O)c1ccc(NC(=O)[C@H](Cc2ccc(OCc3c(Cl)cccc3Cl)cc2)NC(=O)[C@H]2CC[C@H](CN)CC2)cc1` [compound 20]: the IC50 on human plasmin [1] (setting [5]) is 0.31 µM; on bovine thrombin [2] (setting [6]) it was > 50 µM; on human urokinase (Table 2, pH 8.8, 37° C.), 120 µM; on human plasma kallikrein (Table 2, pH 7.8, 37° C.), 0.16 µM; on bovine thrombin [3] it was > 25 µM; at human plasmin [4], 1.4 µM.
Consider `Cc1ccc(NC(=O)[C@H](Cc2ccc(OCc3ccccc3)cc2)NC(=O)[C@H]2CC[C@H](CN)CC2)cc1` [compound 26], for which the IC50 at human plasmin [1] (setting [5]) is 1.1 µM; at bovine thrombin [2] (setting [6]), > 100 µM; on human urokinase (Table 2, pH 8.8, 37° C.), 560 µM; on human plasma kallikrein (Table 2, pH 7.8, 37° C.), 2.1 µM; at bovine thrombin [3] it was > 100 µM; on human plasmin [4] it was 6.9 µM.
In the case of `NC[C@H]1CC[C@H](C(=O)N[C@@H](Cc2ccc(OCc3ccccc3)cc2)C(=O)Nc2ccncc2)CC1` [compound 40], the IC50 on human plasmin [1] (setting [5]) is 0.68 µM; at bovine thrombin [2] (setting [6]) it was > 1000 µM; against bovine thrombin [3] it was > 500 µM; on bovine trypsin (Table 2, pH 8.1, 37° C.), 1.8 µM.
For the compound `NCC1CCC(C(=O)NC(Cc2ccc(OCc3ccccc3)cc2)C(=O)NCc2ccc(F)cc2)CC1` (stereo not shown) [compound 111], the IC50 at human plasmin [1] (setting [5]) is 1.1 µM; at bovine thrombin [2] (setting [6]), > 50 µM; at human urokinase (Table 2, pH 8.8, 37° C.), > 300 µM; on human plasma kallikrein (Table 2, pH 7.8, 37° C.), > 50 µM; at human plasmin [4] it was 5.2 µM; on bovine trypsin (Table 2, pH 8.1, 37° C.) it was 5.8 µM.
Take `NCc1ccc(C(=O)N[C@@H](Cc2ccc(OCc3ccccc3)cc2)C(=O)Nc2ccc(C(=O)O)cc2)cc1` [compound 139]: the IC50 at human plasmin [1] (setting [5]) is 190 µM; on bovine thrombin [2] (setting [6]), > 1000 µM; at human urokinase (Table 2, pH 8.8, 37° C.) it was > 1000 µM; at human plasma kallikrein (Table 2, pH 7.8, 37° C.), > 1000 µM; on bovine thrombin [3] it was > 1000 µM; at human plasmin [4] it was > 1000 µM.
Consider `COc1ccc(NC(=O)[C@H](Cc2ccc(OCc3ccccc3)cc2)NC(=O)c2ccc(CN)cc2)cn1` [compound 140], for which the IC50 was 2.5 µM at human plasmin [1] (setting [5]); > 200 µM at bovine thrombin [2]; > 100 µM on human urokinase (Table 2, pH 8.8, 37° C.); 18 µM at human plasma kallikrein (Table 2, pH 7.8, 37° C.); > 200 µM at bovine thrombin [3]; 8.8 µM on human plasmin [4].
With `CC(=O)c1ccc(NC(=O)[C@H](Cc2ccc(OC(=O)OCc3ccccc3Cl)cc2)NC(=O)[C@H]2CC[C@H](CN)CC2)cc1` [compound 145], the IC50 on human plasmin [1] (setting [5]) was 0.075 µM; on bovine thrombin [2] (setting [6]), 86 µM; on human urokinase (Table 2, pH 8.8, 37° C.), 31 µM; at human plasma kallikrein (Table 2, pH 7.8, 37° C.), 0.75 µM; on bovine thrombin [3], > 50 µM; at human plasmin [4] it was 0.56 µM.
For the compound `CC(=O)c1ccc(NC(=O)[C@H](Cc2ccc(OC(=O)OCc3ccccc3)cc2)NC(=O)[C@H]2CC[C@H](CN)CC2)cc1` [compound 146], the IC50 on human plasmin [1] (setting [5]) was 0.29 µM; at bovine thrombin [2] (setting [6]), > 100 µM; at human urokinase (Table 2, pH 8.8, 37° C.), 45 µM; on human plasma kallikrein (Table 2, pH 7.8, 37° C.), 0.58 µM; against bovine thrombin [3] it was > 100 µM; on human plasmin [4], 0.64 µM.
